From patent US20080009418A1, “Selective Inhibitors” (Alchemia LTD., priority 2004, published 2008)

How the values were obtained:
Conditions in all cases: compound at 10 μM
[1] = biological target: T1, Human neuropeptide Y (NPY-Y1) (Homo sapiens, UniProt P25929); assay: Radioligand binding, human neuropeptide Y NPY-Y1 membranes, FlashPlate, [125I]-PYY
T1 construct: purchased Perkin Elmer Biosignal
T1 sequence (P25929 1-384): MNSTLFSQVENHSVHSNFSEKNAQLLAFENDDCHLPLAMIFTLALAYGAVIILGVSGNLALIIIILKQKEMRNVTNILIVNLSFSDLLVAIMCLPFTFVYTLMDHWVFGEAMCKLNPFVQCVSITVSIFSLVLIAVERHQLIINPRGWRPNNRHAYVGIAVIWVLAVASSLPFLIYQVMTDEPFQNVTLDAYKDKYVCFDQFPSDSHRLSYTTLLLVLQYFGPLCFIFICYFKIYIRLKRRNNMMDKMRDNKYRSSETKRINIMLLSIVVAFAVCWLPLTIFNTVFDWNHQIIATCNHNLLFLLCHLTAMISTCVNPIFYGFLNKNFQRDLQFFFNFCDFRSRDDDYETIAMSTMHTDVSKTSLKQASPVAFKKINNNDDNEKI
In short: (§1)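 Cloned human receptor membranes were coated onto FlashPlate wells and incubated with radioligand and compound (added from a 0.5 mM DMSO daughter plate) for 1 hour at room temperature in the dark. Scintillation counting gave percent inhibition, with DMSO defining total and reference ligand defining non-specific binding.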

[2] = biological target: T2, Human neurokinin (NK1) (Homo sapiens, UniProt P25103); assay: Radioligand binding, human neurokinin NK1 membranes, filtration, [125I]-Substance P
T2 construct: purchased Perkin Elmer Biosignal
In short: (§2)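 Filtration binding on cloned human receptor membranes (1 Unit/well), [125I]-Substance P for NK1 and [3H]-Diprenorphine for KOP, 1 h at room temperature. Filters PEI-presoaked, washed with cold 50 mM Tris-HCl pH 7.4, counted by scintillation; percent inhibition calculated, reference ligand defining non-specific binding.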

[3] = biological target: T3, Human Melanocortin (MC3) (Homo sapiens, UniProt P41968); assay: Radioligand binding, human melanocortin MC3 membranes, FlashPlate, [125I]-NDP-αMSH
T3 construct: purchased Perkin Elmer Biosignal
In short: as §1

[4] = biological target: T4, Human melanocortin (MC5) (Homo sapiens, UniProt P33032); assay: Radioligand binding, human melanocortin MC5 membranes, FlashPlate, [125I]-NDP-αMSH
T4 construct: purchased Perkin Elmer Biosignal
In short: as §1

[5] = biological target: T5, Human δ-opioid (DOP) (Homo sapiens, UniProt P41143); assay: Radioligand binding, human δ-opioid (DOP) membranes, FlashPlate, [3H]-Bremazocine
T5 construct: purchased Perkin Elmer Biosignal
In short: as §1

[6] = biological target: T6, Human melanin-concentrating hormone (MCH1) (Homo sapiens, UniProt Q99705); assay: Radioligand binding, human melanin-concentrating hormone MCH1 membranes, FlashPlate, [125I]-S36057
T6 construct: purchased Perkin Elmer Biosignal
In short: as §1

[7] = biological target: T7, Human Melanocortin (MC4) (Homo sapiens, UniProt P32245); assay: Radioligand binding, human melanocortin MC4 membranes, FlashPlate, [125I]-NDP-αMSH
T7 construct: purchased Perkin Elmer Biosignal
In short: as §1

[8] = biological target: T8, Human κ-Opioid (KOP) (Homo sapiens, UniProt P41145); assay: Radioligand binding, human κ-opioid (KOP) membranes, filtration, [3H]-Diprenorphine
T8 construct: purchased Perkin Elmer Biosignal
In short: as §2

[9] = biological target: T9, Human opioid (ORL1) (Homo sapiens, UniProt P41146); assay: Radioligand binding, human opioid ORL1 membranes, FlashPlate, [125I]-Nociceptin
T9 construct: purchased Perkin Elmer Biosignal
In short: as §1

[10] = biological target: T10, Mouse urotensin (mUR2) (Mus musculus, UniProt Q8VIH9); assay: Radioligand binding, mouse urotensin mUR2 membranes, FlashPlate, [125I]-Urotensin II
T10 construct: purchased Perkin Elmer Biosignal
T10 sequence (Q8VIH9 1-385): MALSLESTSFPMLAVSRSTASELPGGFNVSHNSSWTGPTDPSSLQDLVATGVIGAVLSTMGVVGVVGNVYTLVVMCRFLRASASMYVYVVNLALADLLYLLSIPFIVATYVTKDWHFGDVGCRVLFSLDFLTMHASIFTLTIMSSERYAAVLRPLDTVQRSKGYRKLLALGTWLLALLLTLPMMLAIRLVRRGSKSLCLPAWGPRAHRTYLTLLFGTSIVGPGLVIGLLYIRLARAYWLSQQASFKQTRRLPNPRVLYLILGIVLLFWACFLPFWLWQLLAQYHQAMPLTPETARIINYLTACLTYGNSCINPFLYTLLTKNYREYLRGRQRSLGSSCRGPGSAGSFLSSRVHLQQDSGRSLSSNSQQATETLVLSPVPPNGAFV
In short: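 Cloned mouse urotensin (mUR2) receptor membranes from Perkin Elmer Biosignal were immobilized in FlashPlate microplates using a proprietary coating. Each well got 19.5 μl buffer, then 0.5 μl of DMSO, reference ligand, or compound. Adding 5 μl of [125I]-Urotensin II, diluted to 5× final concentration in binding buffer, started binding. Plates were sealed with TopSeal-A and incubated 1 hour at room temperature in the dark. Wells were counted for 30 seconds each on a TopCount after a 60-second delay, and percentage inhibition was calculated.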

[11] = biological target: T11, Human μ-opioid (MOP) (Homo sapiens, UniProt P35372); assay: Radioligand binding, human μ-opioid (MOP) membranes, FlashPlate, [3H]-Naloxone
T11 construct: purchased Perkin Elmer Biosignal
In short: as §1

T7 sequence (P32245 whole entry): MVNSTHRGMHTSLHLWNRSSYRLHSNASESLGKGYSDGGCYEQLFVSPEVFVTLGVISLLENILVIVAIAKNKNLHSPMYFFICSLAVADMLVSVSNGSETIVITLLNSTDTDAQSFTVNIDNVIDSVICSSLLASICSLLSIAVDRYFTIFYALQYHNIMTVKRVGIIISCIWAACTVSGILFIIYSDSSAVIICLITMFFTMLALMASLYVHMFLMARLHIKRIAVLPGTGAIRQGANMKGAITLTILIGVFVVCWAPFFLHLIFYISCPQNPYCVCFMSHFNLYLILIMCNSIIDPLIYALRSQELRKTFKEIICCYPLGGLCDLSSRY
T4 sequence (P33032 whole entry): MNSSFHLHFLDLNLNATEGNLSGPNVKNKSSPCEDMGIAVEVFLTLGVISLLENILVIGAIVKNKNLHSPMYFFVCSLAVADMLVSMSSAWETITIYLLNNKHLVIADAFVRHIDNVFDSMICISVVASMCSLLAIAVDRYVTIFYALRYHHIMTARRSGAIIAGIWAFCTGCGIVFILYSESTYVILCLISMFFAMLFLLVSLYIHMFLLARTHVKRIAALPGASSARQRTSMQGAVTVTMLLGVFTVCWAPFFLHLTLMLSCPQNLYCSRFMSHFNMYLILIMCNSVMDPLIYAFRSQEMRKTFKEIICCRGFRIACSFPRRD
T5 sequence (P41143 whole entry): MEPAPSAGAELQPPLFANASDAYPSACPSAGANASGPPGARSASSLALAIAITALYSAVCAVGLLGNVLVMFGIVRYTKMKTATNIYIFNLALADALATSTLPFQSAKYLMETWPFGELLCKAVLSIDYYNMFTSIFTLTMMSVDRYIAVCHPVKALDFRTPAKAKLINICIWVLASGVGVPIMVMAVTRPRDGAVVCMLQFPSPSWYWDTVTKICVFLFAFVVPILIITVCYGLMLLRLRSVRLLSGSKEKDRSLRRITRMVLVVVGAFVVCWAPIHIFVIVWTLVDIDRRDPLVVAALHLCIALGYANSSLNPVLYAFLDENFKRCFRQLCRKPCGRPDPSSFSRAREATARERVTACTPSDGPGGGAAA
T2 sequence (P25103 whole entry): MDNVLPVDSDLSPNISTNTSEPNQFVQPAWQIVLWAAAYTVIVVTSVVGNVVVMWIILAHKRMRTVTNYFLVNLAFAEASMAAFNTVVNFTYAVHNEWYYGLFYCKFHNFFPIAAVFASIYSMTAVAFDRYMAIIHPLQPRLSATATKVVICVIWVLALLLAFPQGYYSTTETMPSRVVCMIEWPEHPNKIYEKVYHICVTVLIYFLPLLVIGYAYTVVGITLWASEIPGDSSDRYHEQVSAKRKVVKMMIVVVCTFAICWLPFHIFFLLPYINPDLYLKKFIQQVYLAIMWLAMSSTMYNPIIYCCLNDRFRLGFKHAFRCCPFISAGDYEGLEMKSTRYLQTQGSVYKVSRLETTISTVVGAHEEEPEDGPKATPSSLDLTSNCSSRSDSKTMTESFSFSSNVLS
T6 sequence (Q99705 whole entry): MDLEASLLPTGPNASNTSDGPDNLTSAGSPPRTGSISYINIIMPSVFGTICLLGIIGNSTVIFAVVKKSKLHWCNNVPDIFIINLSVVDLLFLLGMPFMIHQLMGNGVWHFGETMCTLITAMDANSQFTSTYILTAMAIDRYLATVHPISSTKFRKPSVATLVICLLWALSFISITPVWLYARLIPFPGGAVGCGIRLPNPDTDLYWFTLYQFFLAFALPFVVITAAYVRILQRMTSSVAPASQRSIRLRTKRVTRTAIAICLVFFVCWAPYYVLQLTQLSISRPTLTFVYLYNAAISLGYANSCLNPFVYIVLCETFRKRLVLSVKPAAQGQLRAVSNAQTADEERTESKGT
T11 sequence (P35372 whole entry): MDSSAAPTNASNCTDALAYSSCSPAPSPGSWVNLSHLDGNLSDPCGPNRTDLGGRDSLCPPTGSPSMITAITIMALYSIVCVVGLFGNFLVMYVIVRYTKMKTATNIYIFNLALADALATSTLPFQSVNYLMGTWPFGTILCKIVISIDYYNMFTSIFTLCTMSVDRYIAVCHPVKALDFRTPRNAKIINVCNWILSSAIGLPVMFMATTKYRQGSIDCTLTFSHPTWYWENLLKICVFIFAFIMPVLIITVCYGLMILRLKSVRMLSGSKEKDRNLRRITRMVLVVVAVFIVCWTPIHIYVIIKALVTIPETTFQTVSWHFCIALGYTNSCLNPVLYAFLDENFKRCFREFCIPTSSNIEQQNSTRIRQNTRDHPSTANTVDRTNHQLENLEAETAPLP
T9 sequence (P41146 whole entry): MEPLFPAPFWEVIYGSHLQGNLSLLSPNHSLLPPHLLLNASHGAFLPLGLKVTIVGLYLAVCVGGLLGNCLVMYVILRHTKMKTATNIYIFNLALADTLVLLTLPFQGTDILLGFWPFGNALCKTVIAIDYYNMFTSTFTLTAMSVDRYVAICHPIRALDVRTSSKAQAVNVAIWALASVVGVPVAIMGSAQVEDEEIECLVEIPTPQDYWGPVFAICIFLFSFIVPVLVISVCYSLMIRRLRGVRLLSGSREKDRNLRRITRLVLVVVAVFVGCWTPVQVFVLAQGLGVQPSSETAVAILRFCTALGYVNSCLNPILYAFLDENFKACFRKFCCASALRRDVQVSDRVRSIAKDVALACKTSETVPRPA
T8 sequence (P41145 whole entry): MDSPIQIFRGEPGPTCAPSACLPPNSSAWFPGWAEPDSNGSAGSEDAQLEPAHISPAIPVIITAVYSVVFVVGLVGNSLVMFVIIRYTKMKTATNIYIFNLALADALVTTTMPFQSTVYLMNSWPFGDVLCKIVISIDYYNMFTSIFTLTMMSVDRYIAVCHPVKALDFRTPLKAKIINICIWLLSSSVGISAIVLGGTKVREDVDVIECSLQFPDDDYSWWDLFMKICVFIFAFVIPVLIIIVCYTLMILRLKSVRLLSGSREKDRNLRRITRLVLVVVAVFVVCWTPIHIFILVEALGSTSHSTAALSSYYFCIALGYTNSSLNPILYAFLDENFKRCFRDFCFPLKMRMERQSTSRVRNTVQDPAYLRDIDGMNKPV
T3 sequence (P41968 whole entry): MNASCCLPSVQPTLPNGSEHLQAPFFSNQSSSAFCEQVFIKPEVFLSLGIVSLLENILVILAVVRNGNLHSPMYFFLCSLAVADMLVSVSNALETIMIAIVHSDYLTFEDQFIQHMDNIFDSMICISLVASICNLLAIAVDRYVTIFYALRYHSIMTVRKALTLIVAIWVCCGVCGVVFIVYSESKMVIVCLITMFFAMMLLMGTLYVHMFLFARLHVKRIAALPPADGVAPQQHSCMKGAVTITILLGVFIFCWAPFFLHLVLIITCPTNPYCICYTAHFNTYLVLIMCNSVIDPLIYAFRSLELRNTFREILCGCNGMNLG

Structure (SMILES): NCCCC(=O)NC1C(OCc2ccc(Cl)cc2)OC(COCc2ccccc2)C(O)C1OCc1ccccc1 (single isomer, unassigned) [compound 504]
- A9: inhibition of radioligand binding, human neuropeptide Y (NPY-Y1) ([1]; [125I]-PYY): − (“−” indicates less than 50% inhibition at 10 μM)
- A8: inhibition of radioligand binding, human neurokinin (NK1) ([2]; [125I]-Substance P): + (“+” indicates greater than 50% inhibition at 10 μM)
- A3: inhibition of radioligand binding, human melanocortin (MC3) ([3]; [125I]-NDP-αMSH): − (“−” indicates less than 50% inhibition at 10 μM)
- A5: inhibition of radioligand binding, human melanocortin (MC5) ([4]; [125I]-NDP-αMSH, 10 µM): − (“−” indicates less than 50% inhibition at 10 μM)
- A1: inhibition of radioligand binding, human δ-opioid (DOP) ([5]; [3H]-Bremazocine): − (“−” indicates less than 50% inhibition at 10 μM)
- A6: inhibition of radioligand binding, human melanin-concentrating hormone (MCH1) ([6]; [125I]-S36057): − (“−” indicates less than 50% inhibition at 10 μM)
- A4: inhibition of radioligand binding, human melanocortin (MC4) ([7]; [125I]-NDP-αMSH): − (“−” indicates less than 50% inhibition at 10 μM)
- A2: inhibition of radioligand binding, human κ-opioid (KOP) ([8]; [3H]-Diprenorphine): − (“−” indicates less than 50% inhibition at 10 μM)
- A10: inhibition of radioligand binding, human opioid (ORL1) ([9]; [125I]-Nociceptin, 10 µM): + (“+” indicates greater than 50% inhibition at 10 μM)
- A11: inhibition of radioligand binding, mouse urotensin (mUR2) ([10]; [125I]-Urotensin II): − (“−” indicates less than 50% inhibition at 10 μM)
- A7: inhibition of radioligand binding, human μ-opioid (MOP) ([11]; [3H]-Naloxone): − (“−” indicates less than 50% inhibition at 10 μM)

Structure (SMILES): CO[C@H]1[C@H](O)[C@@H](COCc2ccc(-c3ccccc3)cc2)OC(OCc2ccc(-c3ccccc3)cc2)[C@@H]1NC(=O)CCNC(=N)N (stereo partly shown) [compound 52]
- A9 radioligand binding inhibition ([1]; human NPY-Y1 membranes): − (“−” indicates less than 50% inhibition at 10 μM)
- A8 radioligand binding inhibition ([2]; human neurokinin NK1 membranes): + (“+” indicates greater than 50% inhibition at 10 μM)
- A3 radioligand binding inhibition ([3]; human melanocortin MC3 membranes): + (“+” indicates greater than 50% inhibition at 10 μM)
- A5 radioligand binding inhibition ([4]; human melanocortin MC5 membranes): + (“+” indicates greater than 50% inhibition at 10 μM)
- A1 radioligand binding inhibition ([5]; human δ-opioid (DOP) membranes): − (“−” indicates less than 50% inhibition at 10 μM)
- A6 radioligand binding inhibition ([6]; human MCH1 membranes): + (“+” indicates greater than 50% inhibition at 10 μM)
- A4 radioligand binding inhibition ([7]; human melanocortin MC4 membranes): + (“+” indicates greater than 50% inhibition at 10 μM)
- A2 radioligand binding inhibition ([8]; human κ-opioid (KOP) membranes): − (“−” indicates less than 50% inhibition at 10 μM)
- A10 radioligand binding inhibition ([9]; human ORL1 membranes): + (“+” indicates greater than 50% inhibition at 10 μM)
- A11 radioligand binding inhibition ([10]; mouse urotensin mUR2 membranes): − (“−” indicates less than 50% inhibition at 10 μM)
- A7 radioligand binding inhibition ([11]; human μ-opioid (MOP) membranes): + (“+” indicates greater than 50% inhibition at 10 μM)

Structure (SMILES): N=C(N)NCCC(=O)NC1C(OCc2ccc(-c3ccccc3)cc2)OC(COCc2ccc(Cl)cc2)C(O)C1OCc1ccc2ccccc2c1 (stereo not shown) [compound 413]
- A9: inhibition of radioligand binding ([1]; [125I]-PYY, human NPY-Y1 membranes): − (“−” indicates less than 50% inhibition at 10 μM)
- A8: inhibition of radioligand binding ([2]; [125I]-Substance P, human NK1 membranes): + (“+” indicates greater than 50% inhibition at 10 μM)
- A3: inhibition of radioligand binding ([3]; [125I]-NDP-αMSH, human MC3 membranes): + (“+” indicates greater than 50% inhibition at 10 μM)
- A5: inhibition of radioligand binding ([4]; [125I]-NDP-αMSH, human MC5 membranes): + (“+” indicates greater than 50% inhibition at 10 μM)
- A1: inhibition of radioligand binding ([5]; [3H]-Bremazocine, human DOP membranes): − (“−” indicates less than 50% inhibition at 10 μM)
- A6: inhibition of radioligand binding ([6]; [125I]-S36057, human MCH1 membranes): + (“+” indicates greater than 50% inhibition at 10 μM)
- A4: inhibition of radioligand binding ([7]; [125I]-NDP-αMSH, human MC4 membranes): + (“+” indicates greater than 50% inhibition at 10 μM)
- A2: inhibition of radioligand binding ([8]; [3H]-Diprenorphine, human KOP membranes): − (“−” indicates less than 50% inhibition at 10 μM)
- A10: inhibition of radioligand binding ([9]; [125I]-Nociceptin, human ORL1 membranes): + (“+” indicates greater than 50% inhibition at 10 μM)
- A11: inhibition of radioligand binding ([10]; [125I]-Urotensin II, mouse mUR2 membranes): − (“−” indicates less than 50% inhibition at 10 μM)
- A7: inhibition of radioligand binding ([11]; [3H]-Naloxone, human MOP membranes): − (“−” indicates less than 50% inhibition at 10 μM)

Structure (SMILES): CSC1O[C@H](COCc2ccc(-c3ccccc3)cc2)[C@@H](O)[C@@H](OCc2ccc(Cl)cc2)[C@H]1NC(=O)CNC(=N)N (stereo partly shown) [compound 275]
- A9: inhibition of radioligand binding ([1]; [125I]-PYY, FlashPlate): − (“−” indicates less than 50% inhibition at 10 μM)
- A8: inhibition of radioligand binding ([2]; [125I]-Substance P, filtration): + (“+” indicates greater than 50% inhibition at 10 μM)
- A3: inhibition of radioligand binding ([3]; [125I]-NDP-αMSH, FlashPlate): − (“−” indicates less than 50% inhibition at 10 μM)
- A5: inhibition of radioligand binding ([4]; [125I]-NDP-αMSH, FlashPlate): + (“+” indicates greater than 50% inhibition at 10 μM)
- A1: inhibition of radioligand binding ([5]; [3H]-Bremazocine, FlashPlate): − (“−” indicates less than 50% inhibition at 10 μM)
- A6: inhibition of radioligand binding ([6]; [125I]-S36057, FlashPlate): − (“−” indicates less than 50% inhibition at 10 μM)
- A4: inhibition of radioligand binding ([7]; [125I]-NDP-αMSH, FlashPlate): + (“+” indicates greater than 50% inhibition at 10 μM)
- A2: inhibition of radioligand binding ([8]; [3H]-Diprenorphine, filtration): − (“−” indicates less than 50% inhibition at 10 μM)
- A10: inhibition of radioligand binding ([9]; [125I]-Nociceptin, FlashPlate): − (“−” indicates less than 50% inhibition at 10 μM)
- A11: inhibition of radioligand binding ([10]; [125I]-Urotensin II, FlashPlate): − (“−” indicates less than 50% inhibition at 10 μM)
- A7: inhibition of radioligand binding ([11]; [3H]-Naloxone, FlashPlate): − (“−” indicates less than 50% inhibition at 10 μM)

Structure (SMILES): COC[C@H]1OC(OCc2ccc(-c3ccccc3)cc2)[C@H](NC(=O)CCCNC(=N)N)[C@@H](OCc2cccc(O)c2)[C@@H]1O (stereo partly shown) [compound 132]
- A9 radioligand binding, percentage inhibition ([1]; [125I]-PYY): − (“−” indicates less than 50% inhibition at 10 μM)
- A8 radioligand binding, percentage inhibition ([2]; [125I]-Substance P): − (“−” indicates less than 50% inhibition at 10 μM)
- A3 radioligand binding, percentage inhibition ([3]; [125I]-NDP-αMSH): − (“−” indicates less than 50% inhibition at 10 μM)
- A5 radioligand binding, percentage inhibition ([4]; [125I]-NDP-αMSH): − (“−” indicates less than 50% inhibition at 10 μM)
- A1 radioligand binding, percentage inhibition ([5]; [3H]-Bremazocine): − (“−” indicates less than 50% inhibition at 10 μM)
- A6 radioligand binding, percentage inhibition ([6]; [125I]-S36057): − (“−” indicates less than 50% inhibition at 10 μM)
- A4 radioligand binding, percentage inhibition ([7]; [125I]-NDP-αMSH): − (“−” indicates less than 50% inhibition at 10 μM)
- A2 radioligand binding, percentage inhibition ([8]; [3H]-Diprenorphine): + (“+” indicates greater than 50% inhibition at 10 μM)
- A10 radioligand binding, percentage inhibition ([9]; [125I]-Nociceptin): − (“−” indicates less than 50% inhibition at 10 μM)
- A11 radioligand binding, percentage inhibition ([10]; [125I]-Urotensin II): − (“−” indicates less than 50% inhibition at 10 μM)
- A7 radioligand binding, percentage inhibition ([11]; [3H]-Naloxone): + (“+” indicates greater than 50% inhibition at 10 μM)
